Measurements from paper PMC10114980, “Triple targeting of mutant EGFR^L858R/T790M, COX-2, and 15-LOX: design and synthesis of novel quinazolinone tethered phenyl urea derivatives for anti-inflammatory and anticancer evaluation” (Journal of Enzyme Inhibition and Medicinal Chemistry, 2023).
Values joined by “and” are separate entries in the source; they are usually repeats but may differ in a detail not shown here. Equal values may be shown once.

Columns and labels:
[1] = target: T1, double mutant EGFR^L858R/T790M (Homo sapiens, UniProt P00533, L858R/T790M); assay: In vitro EGFR inhibition assay, double mutant; assay type: biochemical; conditions: for IC50: double mutant EGFR; for Selectivity (SI): ratio of the IC50 values EGFR^WT/EGFR^L858R/T790M
T1 construct: purchased AssayQuant Technologies, Inc. (Marlboro, MA, USA)
T1 sequence (P00533 25-1210 T790M/L858R): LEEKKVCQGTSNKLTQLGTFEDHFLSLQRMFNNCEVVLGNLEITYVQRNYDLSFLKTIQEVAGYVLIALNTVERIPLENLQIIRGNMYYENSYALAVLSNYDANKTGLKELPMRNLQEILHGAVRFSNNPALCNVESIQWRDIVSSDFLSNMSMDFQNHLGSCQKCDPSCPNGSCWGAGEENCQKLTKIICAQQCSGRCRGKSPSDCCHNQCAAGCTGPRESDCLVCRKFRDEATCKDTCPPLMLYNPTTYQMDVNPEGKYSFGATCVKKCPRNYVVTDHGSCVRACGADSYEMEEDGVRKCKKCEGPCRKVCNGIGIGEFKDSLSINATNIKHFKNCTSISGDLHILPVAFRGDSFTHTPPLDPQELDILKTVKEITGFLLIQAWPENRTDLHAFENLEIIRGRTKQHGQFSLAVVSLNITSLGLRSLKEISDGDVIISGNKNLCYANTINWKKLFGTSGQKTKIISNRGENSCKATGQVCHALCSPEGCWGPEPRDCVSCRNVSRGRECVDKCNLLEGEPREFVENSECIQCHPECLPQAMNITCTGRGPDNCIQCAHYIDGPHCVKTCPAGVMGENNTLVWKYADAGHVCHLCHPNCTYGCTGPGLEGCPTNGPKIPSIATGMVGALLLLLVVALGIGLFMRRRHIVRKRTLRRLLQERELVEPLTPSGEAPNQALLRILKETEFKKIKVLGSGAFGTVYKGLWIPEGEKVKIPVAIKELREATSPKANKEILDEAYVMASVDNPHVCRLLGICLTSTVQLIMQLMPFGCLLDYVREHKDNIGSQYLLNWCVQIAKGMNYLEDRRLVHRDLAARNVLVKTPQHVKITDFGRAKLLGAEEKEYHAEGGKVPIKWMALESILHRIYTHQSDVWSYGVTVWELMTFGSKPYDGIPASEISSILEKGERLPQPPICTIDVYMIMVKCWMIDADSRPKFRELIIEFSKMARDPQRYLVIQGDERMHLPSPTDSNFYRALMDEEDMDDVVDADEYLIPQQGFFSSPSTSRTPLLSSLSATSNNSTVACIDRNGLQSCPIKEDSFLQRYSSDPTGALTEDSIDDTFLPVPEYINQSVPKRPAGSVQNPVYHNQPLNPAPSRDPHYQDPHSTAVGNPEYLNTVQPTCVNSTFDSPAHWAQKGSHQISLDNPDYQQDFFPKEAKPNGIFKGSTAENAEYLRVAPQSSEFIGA

BT-549 = assay: NCI single dose screen, BT-549; assay type: cell-based; conditions: Homo sapiens; BT-549, breast cancer; single dose 10^−5 M; read-out: growth inhibition percentage
Method: (§1) Screening of the anticancer activity of the newly synthesised compounds (6a, 6c, 6d, 6e, 6j, 6l, 6m, 6n, 6o, and 6p) was performed by the US National Cancer Institute (NCI) using 60 different human tumour cell lines in accordance with standard procedures formerly reported.
(§2) In vitro anticancer screening was carried out for the selected compounds at a single dose (10^−5 M) against 60 different human tumour cell lines of nine different cancer cell types: leukaemia, lung, colon, CNS, melanoma, ovarian, renal, prostate, and breast cancers.

UO-31 = assay: NCI single dose screen, UO-31; assay type: cell-based; conditions: Homo sapiens; UO-31, renal cancer; single dose 10^−5 M; read-out: growth inhibition percentage
Method: as §1, §2

SF-295 = assay: NCI single dose screen, SF-295; assay type: cell-based; conditions: Homo sapiens; SF-295, CNS cancer; single dose 10^−5 M; read-out: growth inhibition percentage
Method: as §1, §2

SK-MEL-28 = assay: NCI single dose screen, SK-MEL-28; assay type: cell-based; conditions: Homo sapiens; SK-MEL-28, melanoma; single dose 10^−5 M; read-out: growth inhibition percentage
Method: as §1, §2

RXF 393 = assay: NCI single dose screen, RXF 393; assay type: cell-based; conditions: Homo sapiens; RXF 393, renal cancer; single dose 10^−5 M; read-out: growth inhibition percentage
Method: as §1, §2

MDA-MB-468 = assay: NCI single dose screen, MDA-MB-468; assay type: cell-based; conditions: Homo sapiens; MDA-MB-468, breast cancer; single dose 10^−5 M; read-out: growth inhibition percentage
Method: as §1, §2

SF-539 = assay: NCI single dose screen, SF-539; assay type: cell-based; conditions: Homo sapiens, read-out: growth inhibition percentage
Method: as §1, §2

[2] = test system: LPS-induced NO production in RAW 264.7 cells; assay: NO production in LPS-activated RAW 264.7 macrophage cells (DAF-FM diacetate); assay type: cell-based; conditions: Mus musculus, RAW264.7; LPS-activated RAW 264.7 cells; mean ± SEM, three replicates
Method: TNF-α and IL-6 production were detected in RAW 264.7 macrophage cell culture supernatants following the induction of inflammation by LPS. Moreover, the probes of oxidative species 2,7-dichlorofluorescein diacetate (DCFH-DA) (Molecular Probes) and NO, 4-amino-5-methylamino-2,7-difluorofluorescein diacetate (DAF-FM diacetate) (Molecular Probes) were used to investigate the antioxidant and NO production inhibitory potential of the test compounds. Briefly, RAW 264.7 cells were cultured in black 96 well plates (200 000 cells/mL, 100 µl/well) for 24 h followed by the incubation with the individual test compounds or the reference drugs at different concentrations (12.5, 25, 50, and 100 µM) for 2 h at 37 °C. LPS was then added at a final concentration of 1 µg/mL for an additional 18 h. The cell culture supernatant was collected from cells treated with the different compounds at 25 µM to measure TNF-α and IL-6 levels (1:10 dilution) using DuoSet ELISA kits (R&D Systems, Minneapolis, MN) following the manufacturer’s instructions. Then, the plates were washed to perform ROS and NO detection assays as detailed in our previous studies[16]^,[27].

OVCAR-4 = assay: NCI single dose screen, OVCAR-4; assay type: cell-based; conditions: Homo sapiens; OVCAR-4, ovarian cancer; single dose 10^−5 M; read-out: growth inhibition percentage
Method: as §1, §2

HCC-2998 = assay: NCI single dose screen, HCC-2998; assay type: cell-based; conditions: Homo sapiens; HCC-2998, colon cancer; single dose 10^−5 M; read-out: growth inhibition percentage
Method: as §1, §2

[3] = test system: LPS-induced IL-6 production in RAW 264.7 cells; assay: IL-6 production in LPS-activated RAW 264.7 cells (ELISA); assay type: cell-based; conditions: LPS-activated RAW 264.7 cells treated with 25 µM of the compound
UACC-62 = assay: NCI single dose screen, UACC-62; assay type: cell-based; conditions: Homo sapiens; UACC-62, melanoma; single dose 10^−5 M; read-out: growth inhibition percentage
Method: as §1, §2

MDA-MB-231/ATCC = assay: NCI single dose screen, MDA-MB-231/ATCC; assay type: cell-based; conditions: Homo sapiens, breast cancer, single dose 10^−5 M, read-out: growth inhibition percentage
Method: as §1, §2

SK-OV-3 = assay: NCI single dose screen, SK-OV-3; assay type: cell-based; conditions: Homo sapiens; SK-OV-3, ovarian cancer; single dose 10^−5 M; read-out: growth inhibition percentage
Method: as §1, §2

SNB-19 = assay: NCI single dose screen, SNB-19; assay type: cell-based; conditions: Homo sapiens; SNB-19, CNS cancer; single dose 10^−5 M; read-out: growth inhibition percentage
Method: as §1, §2

K-562 = assay: NCI single dose screen, K-562; assay type: cell-based; conditions: Homo sapiens, K562; K-562, leukaemia; single dose 10^−5 M; read-out: growth inhibition percentage
Method: as §1, §2

HT29 = assay: NCI single dose screen, HT29; assay type: cell-based; conditions: Homo sapiens, HT-29; HT29, colon cancer; single dose 10^−5 M; read-out: growth inhibition percentage
Method: as §1, §2

SK-MEL-5 = assay: NCI single dose screen, SK-MEL-5; assay type: cell-based; conditions: Homo sapiens; SK-MEL-5, melanoma; single dose 10^−5 M; read-out: growth inhibition percentage
Method: as §1, §2

HS 578T = assay: NCI single dose screen, HS 578T; assay type: cell-based; conditions: Homo sapiens, breast cancer, single dose 10^−5 M, read-out: growth inhibition percentage
Method: as §1, §2

SR = assay: NCI single dose screen, SR; assay type: cell-based; conditions: Homo sapiens, leukaemia, single dose 10^−5 M, read-out: growth inhibition percentage
Method: as §1, §2

RPMI-8226 = assay: NCI single dose screen, RPMI-8226; assay type: cell-based; conditions: Homo sapiens; RPMI-8226, leukaemia; single dose 10^−5 M; read-out: growth inhibition percentage
Method: as §1, §2

EKVX = assay: NCI single dose screen, EKVX; assay type: cell-based; conditions: Homo sapiens, non-small cell lung cancer, single dose 10^−5 M, read-out: growth inhibition percentage
Method: as §1, §2

MCF7 = assay: NCI single dose screen, MCF7; assay type: cell-based; conditions: Homo sapiens; MCF7, breast cancer; single dose 10^−5 M; read-out: growth inhibition percentage
Method: as §1, §2

PC-3 = assay: NCI single dose screen, PC-3; assay type: cell-based; conditions: Homo sapiens; PC-3, prostate cancer; single dose 10^−5 M; read-out: growth inhibition percentage
Method: as §1, §2

SMILES | IC50 [1] [µM] | Selectivity (SI) [1] | inhibition at 10 µM (BT-549) [%] | inhibition at 10 µM (UO-31) [%] | inhibition at 10 µM (SF-295) [%] | inhibition at 10 µM (SK-MEL-28) [%] | inhibition at 10 µM (RXF 393) [%] | inhibition at 10 µM (MDA-MB-468) [%] | inhibition at 10 µM (SF-539) [%] | IC50 [2] [µM] | inhibition at 10 µM (OVCAR-4) [%] | inhibition at 10 µM (HCC-2998) [%] | IL-6 concentration [3] | inhibition at 10 µM (UACC-62) [%] | inhibition at 10 µM (MDA-MB-231/ATCC) [%] | inhibition at 10 µM (SK-OV-3) [%] | inhibition at 10 µM (SNB-19) [%] | inhibition at 10 µM (K-562) [%] | inhibition at 10 µM (HT29) [%] | inhibition at 10 µM (SK-MEL-5) [%] | also measured
CN1c2ccccc2C(=O)N(NC(=O)Nc2ccc(F)cc2)C1c1ccc(F)cc1 (stereo not drawn) [Compound 6n, 1-(4-Fluorophenyl)-3-(2–(4-fluorophenyl)-1-methyl-4-oxo-1,4-dihydroquinazolin-3(2H)-yl)urea] | 13.5 ± 2.22 | >7.4 | < 10 | 57.1 | < 10 | < 10 | < 10 | < 10 | 10.1 | 19.9 ± 0.71 | 29.7 | < 10 | 535.3 ± 15.25 pg/mL | 38.1 | 29.8 | 22.9 | < 10 | 22.1 | < 10 | 20.3 | inhibition at 10 µM (HS 578T): 19.7%; inhibition at 10 µM (SR): 14.4%; inhibition at 10 µM (RPMI-8226): 33.1%; inhibition at 10 µM (EKVX): 16.4%; inhibition at 10 µM (MCF7): 29.9%; melting point: 214 to 216 °C; inhibition at 10 µM (PC-3): 38.1%
CN1c2ccccc2C(=O)N(NC(=O)Nc2ccc(F)cc2)C1c1ccc([N+](=O)[O-])cc1 (stereo not drawn) [Compound 6o, 1-(4-Fluorophenyl)-3–(1-methyl-2-(4-nitrophenyl)-4-oxo-1,4-dihydroquinazolin-3(2H)-yl)urea] | 36 ± 2.58 | 1.5 | < 10 | 41.3 | < 10 | < 10 | < 10 | < 10 | < 10 | 1.97 ± 1.45 | 16.4 | < 10 | 37.23 pg/mL and 37.23 ± 1.19 pg/mL | 27.4 | 22.5 | < 10 | 11.4 | 17.5 | < 10 | 13.7 | inhibition at 10 µM (HS 578T): < 10%; inhibition at 10 µM (SR): 12.2%; inhibition at 10 µM (RPMI-8226): 22.4%; inhibition at 10 µM (EKVX): 19.8%; inhibition at 10 µM (MCF7): 17.9%; melting point: 250 to 252 °C; inhibition at 10 µM (PC-3): 31%
COc1ccc(C2N(NC(=O)Nc3ccc(F)cc3)C(=O)c3ccccc3N2C)cc1 (stereo not drawn) [Compound 6p, 1-(4-Fluorophenyl)-3-(2–(4-methoxyphenyl)-1-methyl-4-oxo-1,4-dihydroquinazolin-3(2H)-yl)urea] | 5.41 ± 3.21 | >18.5 | < 10 | 42.6 | < 10 | < 10 | < 10 | < 10 | < 10 | 10.84 ± 0.05 | < 10 | < 10 | 237.2 ± 3.19 pg/mL | < 10 | 12.6 | < 10 | < 10 | < 10 | < 10 | < 10 | inhibition at 10 µM (HS 578T): < 10%; inhibition at 10 µM (SR): < 10%; inhibition at 10 µM (RPMI-8226): 11.2%; inhibition at 10 µM (EKVX): < 10%; inhibition at 10 µM (MCF7): 14.7%; melting point: 224 to 226 °C; inhibition at 10 µM (PC-3): 15.2%
